Measured values from patent US20250243196A1, “CITRON KINASE INHIBITORS” (The Cleveland Clinic Foundation, priority 2021, published 2025).
Read-outs that look alike come from different tables or passages of the source.

Test system: NCI-60 human tumor cell line panel
Assay: NCI-60 human tumor cell line screen (GI50)
Format: cell-based

SMILES: Cc1cc2c(-c3ccc(NC(=O)[C@H](N)CC(C)(C)C)cc3C)ccnc2[nH]1 [Compound F-90, (2R)-2-Amino-4,4-dimethyl-N-[3-methyl-4-(2-methyl-1H-pyrrolo[2,3-b]pyridin-4-yl)phenyl]pentanamide]
- GI50 (786-0, Renal Cancer): −5.744 Log(M)
- GI50 (A498, Renal Cancer): −5.657 Log(M)
- GI50 (A549/ATCC, Non-Small Cell Lung Cancer): −4.985 Log(M)
- GI50 (ACHN, Renal Cancer): −4.978 Log(M)
- GI50 (BT-549, Breast Cancer): −5.200 Log(M)
- GI50 (CAKI-1, Renal Cancer): −5.347 Log(M)
- GI50 (CCRF-CEM, Leukemia): −5.267 Log(M)
- GI50 (COLO 205, Colon Cancer): −5.741 Log(M)
- GI50 (DU-145, Prostate Cancer): −4.905 Log(M)
- GI50 (EKVX, Non-Small Cell Lung Cancer): −4.950 Log(M)
- GI50 (HCC-2998, Colon Cancer): −5.236 Log(M)
- GI50 (HCT-15, Colon Cancer): −5.345 Log(M)
- GI50 (HCT-116, Colon Cancer): −5.314 Log(M)
- GI50 (HL-60(TB), Leukemia): −5.539 Log(M)
- GI50 (HOP-62, Non-Small Cell Lung Cancer): −4.941 Log(M)
- GI50 (HOP-92, Non-Small Cell Lung Cancer): −5.574 Log(M)
- GI50 (HS 578T, Breast Cancer): −5.849 Log(M)
- GI50 (HT29, Colon Cancer): −5.565 Log(M)
- GI50 (Homo sapiens, 786-0, 786-0, Renal Cancer, read-out: GI50): 1.8 µM
- GI50 (Homo sapiens, A498, A498, Renal Cancer, read-out: GI50): 2.2 µM
- GI50 (Homo sapiens, A549, A549/ATCC, Non-Small Cell Lung Cancer, read-out: GI50): 10.3 µM
- GI50 (Homo sapiens, ACHN, Renal Cancer, read-out: GI50): 10.5 µM
- GI50 (Homo sapiens, BT-549, BT-549, Breast Cancer, read-out: GI50): 6.3 µM
- GI50 (Homo sapiens, CAKI-1, CAKI-1, Renal Cancer, read-out: GI50): 4.5 µM
- GI50 (Homo sapiens, CCRF-CEM, Leukemia, read-out: GI50): 5.4 µM
- GI50 (Homo sapiens, COLO 205, COLO 205, Colon Cancer, read-out: GI50): 1.8 µM
- GI50 (Homo sapiens, DU-145, DU-145, Prostate Cancer, read-out: GI50): 12.4 µM
- GI50 (Homo sapiens, EKVX, Non-Small Cell Lung Cancer, read-out: GI50): 11.2 µM
- GI50 (Homo sapiens, HCC 2998, HCC-2998, Colon Cancer, read-out: GI50): 5.8 µM
- GI50 (Homo sapiens, HCT-15, HCT-15, Colon Cancer, read-out: GI50): 4.5 µM
- GI50 (Homo sapiens, HCT-116, HCT-116, Colon Cancer, read-out: GI50): 4.9 µM
- GI50 (Homo sapiens, HL-60, HL-60(TB), Leukemia, read-out: GI50): 2.9 µM
- GI50 (Homo sapiens, HOP-62, HOP-62, Non-Small Cell Lung Cancer, read-out: GI50): 11.4 µM
- GI50 (Homo sapiens, HOP-92, HOP-92, Non-Small Cell Lung Cancer, read-out: GI50): 2.7 µM
- GI50 (Homo sapiens, HT-29, HT29, Colon Cancer, read-out: GI50): 2.7 µM
- GI50 (Homo sapiens, Hs-578T, HS 578T, Breast Cancer, read-out: GI50): 1.4 µM
- GI50 (Homo sapiens, IGROV-1, IGROV1, Ovarian Cancer, read-out: GI50): 12.2 µM
- GI50 (Homo sapiens, K562, K-562, Leukemia, read-out: GI50): 2.8 µM
- GI50 (Homo sapiens, KM12, KM12, Colon Cancer, read-out: GI50): 6.1 µM
- GI50 (Homo sapiens, LOX IMVI, Melanoma, read-out: GI50): 6.2 µM
- GI50 (Homo sapiens, M14, M14, Melanoma, read-out: GI50): 11 µM
- GI50 (Homo sapiens, MCF7, MCF7, Breast Cancer, read-out: GI50): 5.5 µM
- GI50 (Homo sapiens, MDA-MB-231, MDA-MB-231/ATCC, Breast Cancer, read-out: GI50): 7.4 µM
- GI50 (Homo sapiens, MDA-MB-435, MDA-MB-435, Breast Cancer, read-out: GI50): 7 µM
- GI50 (Homo sapiens, MDA-MB-468, MDA-MB-468, Breast Cancer, read-out: GI50): 2.7 µM
- GI50 (Homo sapiens, MOLT-4, MOLT-4, Leukemia, read-out: GI50): 4.7 µM
- GI50 (Homo sapiens, Malme-3M, Melanoma, read-out: GI50): 10.2 µM
- GI50 (Homo sapiens, NCI-H23, NCI-H23, Non-Small Cell Lung Cancer, read-out: GI50): 12.2 µM
- GI50 (Homo sapiens, NCI-H226, NCI-H226, Non-Small Cell Lung Cancer, read-out: GI50): 10.7 µM
- GI50 (Homo sapiens, NCI-H322M, Non-Small Cell Lung Cancer, read-out: GI50): 14.3 µM
- GI50 (Homo sapiens, NCI-H460, NCI-H460, Non-Small Cell Lung Cancer, read-out: GI50): 5.7 µM
- GI50 (Homo sapiens, NCI-H522, NCI-H522, Non-Small Cell Lung Cancer, read-out: GI50): 13 µM
- GI50 (Homo sapiens, NCI/ADR-RES, Breast Cancer, read-out: GI50): 13.4 µM
- GI50 (Homo sapiens, OVCAR-3, OVCAR-3, Ovarian Cancer, read-out: GI50): 11.6 µM
- GI50 (Homo sapiens, OVCAR-4, OVCAR-4, Ovarian Cancer, read-out: GI50): 7 µM
- GI50 (Homo sapiens, OVCAR-5, OVCAR-5, Ovarian Cancer, read-out: GI50): 10.4 µM
- GI50 (Homo sapiens, OVCAR-8, OVCAR-8, Ovarian Cancer, read-out: GI50): 13.6 µM
- GI50 (Homo sapiens, PC-3, Prostate Cancer, read-out: GI50): 7.9 µM
- GI50 (Homo sapiens, RPMI-8226, RPMI-8226, Leukemia, read-out: GI50): 2.8 µM
- GI50 (Homo sapiens, RXF 393, RXF 393, Renal Cancer, read-out: GI50): 3.7 µM
- GI50 (Homo sapiens, SF-268, SF-268, CNS Cancer, read-out: GI50): 11.1 µM
- GI50 (Homo sapiens, SF-295, SF-295, CNS Cancer, read-out: GI50): 8.3 µM
- GI50 (Homo sapiens, SF-539, SF-539, CNS Cancer, read-out: GI50): 8 µM
- GI50 (Homo sapiens, SK-MEL-2, SK-MEL-2, Melanoma, read-out: GI50): 14 µM
- GI50 (Homo sapiens, SK-MEL-5, SK-MEL-5, Melanoma, read-out: GI50): 2.5 µM
- GI50 (Homo sapiens, SK-MEL-28, SK-MEL-28, Melanoma, read-out: GI50): 8.5 µM
